Assay results taken from US20230355599A1, “BIOMARKERS FOR CBL, AND COMPOSITIONS AND METHODS FOR THEIR USE” (NURIX THERAPEUTICS, INC., priority 2022, published 2023).

Assays:
pY180/pY511-ITK = test: Phosphoprotein screen in human whole blood with CBL inhibitor at 10 uM: ITK; assay type: cell-based; conditions: 1 hr 37° C., human whole blood 8 donors, anti-CD3/CD28 + crosslinker 60 minutes
Description: To identify proximal biomarkers of CBL-B inhibition in immune cells, a panel of phosphorylated proteins were screened in human whole blood incubated with CBL-B inhibitor and concomitant anti-CD3 and anti-CD28 antibodies. The effect of CBL-B inhibition was assessed across multiple cellular signaling networks.
Human heparinized whole blood from 8 donors was received after an overnight shipment at 4° C. The blood was plated, treated with CBL inhibitor at 10 uM and incubated at 37° C. for 60 minutes. After incubation, the cells were stimulated with anti-CD3/CD28 followed by a cross-linking antibody (30 μg of goat anti-mouse IgG (H+L) antibody (Invitrogen)). After 60 minutes, the cells were fixed, and stained using surface markers for T cells (CD3^+CD4^+& CD3^+CD8^+) and analyzed by flow cytometry for target phosphorylation of the following markers: pY180/pY511-ITK, pY397-HS1, pY759-PLCg2, pY783-PLCg1, pY525/pY526/pY348-SYK & pY319-Zap70.
Fold change of each biomarker was calculated with the following example equation: […]
Whole blood from eight human donors was collected in sodium heparin anti-coagulant treated with 10 μM of Compound 23 for 1 hr at 37° C. […] Fold change of % phosphorylation normalized to DMSO was quantitated in T cells (CD8^+) using flow cytometry is provided in FIGS. 6A-6B.

phosphorylated PLCγ2 = test: Phosphorylated PLCγ2 in human CD8+ T cells from whole blood in vitro (flow cytometry); assay type: cell-based; conditions: T-cell, whole blood from six human donors, 2 hrs 37° C., anti-CD3/anti-CD28 + crosslinker 60 minutes, read-out: Average mean EC50±standard deviation, phosphorylated PLCγ2
Description: To assess these candidate clinical proximal biomarkers of Cbl-b inhibition on T cells, pharmacodynamic analysis was performed. Whole blood was obtained from human donors and incubated with increasing concentrations of Compound 23. The response to Cbl-b inhibition on phosphorylated HS1, PLCγ2, and ZAP70 was measured in CD8^+ T cells using flow cytometry. This technique is highly quantitative and can measure multiple phosphorylation markers in different cell populations within the same sample.
For pharmacodynamic analysis, whole blood was obtained from six human donors (BioIVT) and used for flow cytometry assays to evaluate phosphorylated biomarkers HS1, PLCγ2, and ZAP70 in CD8^+ T cells.
Whole blood was collected in a collection tube coated with sodium heparin. […]
Stained cells were run on an Attune NxT Acoustic Focusing Flow Cytometer (Thermo Fisher, cat. No. A29004), and data was analyzed using FlowJo (v10.6.1) and GraphPad Prism (v8.00) software. Single lymphocytes were gated for CD8^+ cells (CD45^+/CD8^+) cells, and population frequencies were calculated for each population. The data is quantified by the percent positive. […] As protein becomes phosphorylated the fluorescence increases resulting in a larger fraction of the cells entering that gate. Each population was evaluated for % positive pY759-PLCγ2, pY397-HS1 levels, pY319/Syk (Y352)-ZAP70 levels.

phosphorylated HS1 = test: HS1 phosphorylation in stimulated CD8+ T cells of mice after a single oral dose (flow cytometry); assay type: in vivo
Description: To assess the in vivo effects of Compound 23 on candidate clinical proximal biomarkers of CBL-B inhibition and compare them to anti-tumor efficacy, two experiments were performed in mice. In the first experiment, whole blood was obtained from groups of mice (n=4 per group) administered a single oral dose of either vehicle (0.5% MC/0.2% polysorbate 80 in deionized water) or increasing doses of Compound 23 at 0.3, 1, 3, 10, 30, or 90 mg/kg. The response to Compound 23 on HS1 activation was measured in anti-CD3 and anti-CD28 stimulated CD8^+ T cells using flow cytometry. Compound 23 induced a dose-dependent increase in the proportion of phosphorylated HS1^+CD8^+ in the presence of anti-CD3 and anti-CD28 co-stimulation. The greatest induction of phosphorylated HS1 was observed upon ex vivo stimulation following administration of Compound 23 doses of ≥10 mg/kg. […] Statistical significance was calculated using 2-way ANOVA with Dunnett's multiple comparisons test.

Structure (SMILES): C[C@H]1CCCN(Cc2cc3c(c(C(F)(F)F)c2)CN(c2cccc([C@]4(c5nncn5C)C[C@@H](C)C4)c2)C3=O)C1 [Compound 23]
- increased phosphorylation of ITK compared to DMSO control (pY180/pY511-ITK): 3-4 fold
- EC50 (phosphorylated PLCγ2): 0.074 ± 0.00495 µM
- proximal biomarker pHS1 that correlates with the efficacious range (phosphorylated HS1; pHS1+CD8+ T cells, mouse syngeneic tumor models, therapeutic range): approximately 50%
- minimum biological effect level observed in mice (EC50), phosphorylated HS1+ CD8+ (phosphorylated HS1; single oral dose 0.3-90 mg/kg, anti-CD3 and anti-CD28 stimulated CD8+ T cells): 12 mg/kg
- doses giving the greatest induction of phosphorylated HS1 (phosphorylated HS1; single oral dose, ex vivo stimulation): ≥ 10 mg/kg
